Source: patent US5817818A, “Androstenones” (Glaxo Wellcome Inc., priority 1996, dated 1998)

Tests used:
[1] = target: T1, human type 2 5α-reductase (Homo sapiens, UniProt P31213); experiment: Inhibition of human type 2 steroid 5α-reductase (microsomes; testosterone to DHT conversion); type: biochemical; conditions: 20 min preincubation, pH 6.0, 8 nM testosterone, 20-40 min, 1 mM NADPH; read-out: IC50 Human Type 2 5AR
T1 construct: made in house; host or cells: Sf9 insect cells, recombinant baculovirus; microsomes
T1 sequence (P31213 1-254): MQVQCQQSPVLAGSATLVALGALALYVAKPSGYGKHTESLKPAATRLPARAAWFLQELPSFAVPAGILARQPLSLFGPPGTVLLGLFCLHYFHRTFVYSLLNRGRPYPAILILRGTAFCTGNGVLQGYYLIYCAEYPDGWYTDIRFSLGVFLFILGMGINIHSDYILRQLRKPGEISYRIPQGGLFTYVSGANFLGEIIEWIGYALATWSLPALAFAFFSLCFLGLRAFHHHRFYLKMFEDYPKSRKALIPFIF
Protocol: (§1) Enzyme activities may be determined using microsomes derived from: 1) prostate tissue from benign prostatic hyperplasia (BPH) patients; 2) recombinant baculovirus infected SF9 cells that express human type 1 5α-reductase; or 3) recombinant baculovirus infected SF9 cells that express human type 2 5α-reductase. Microsomes were prepared by homogenization of the tissue or cells, followed by differential centrifugation of the homogenate. Microsome extracts were incubated with varying concentrations of [1,2,6,7-^3 H]-testosterone, 1 mM NADPH, and varying amounts of the compounds of formula (I,) i.e. a test compound, in buffer containing a NADPH regenerating system capable of maintaining NADPH concentrations for a period of time within the range 0.5-240 minutes. Corresponding incubations were carried out with no test compound as a control study.
(§2) For type 1 IC50 measurements, assay components except testosterone were preincubated for 10 minutes at pH 7.0, and following the addition of 100 nM testosterone the assays were allowed to proceed for 10-120 minutes. For type 2 IC50 measurements, assay components except testosterone were preincubated for 20 minutes at pH 6.0, and following the addition of 8 nM testosterone the assays were allowed to proceed for 20-40 minutes. The percentage of conversion of testosterone to DHT in the presence of test compounds compared to the corresponding conversion in the control study was estimated using high performance liquid chromatography (HPLC) with radiochemical detection.

[2] = target: T2, Human Adrenal 3BHSD (Homo sapiens, UniProt P26439); experiment: Inhibition of human adrenal 3β-hydroxy-Δ^5-steroid dehydrogenase/3-keto-Δ^5-steroid isomerase (3BHSD) (microsomes; DHEA to androstenedione conversion); type: biochemical; conditions: 1 mM NAD+, pH 7.5, 1 to 60 minutes
T2 construct: microsomes derived from human adrenal tissues; from tissue; host or cells: human adrenal tissue, microsomes
T2 sequence (P26439 1-372): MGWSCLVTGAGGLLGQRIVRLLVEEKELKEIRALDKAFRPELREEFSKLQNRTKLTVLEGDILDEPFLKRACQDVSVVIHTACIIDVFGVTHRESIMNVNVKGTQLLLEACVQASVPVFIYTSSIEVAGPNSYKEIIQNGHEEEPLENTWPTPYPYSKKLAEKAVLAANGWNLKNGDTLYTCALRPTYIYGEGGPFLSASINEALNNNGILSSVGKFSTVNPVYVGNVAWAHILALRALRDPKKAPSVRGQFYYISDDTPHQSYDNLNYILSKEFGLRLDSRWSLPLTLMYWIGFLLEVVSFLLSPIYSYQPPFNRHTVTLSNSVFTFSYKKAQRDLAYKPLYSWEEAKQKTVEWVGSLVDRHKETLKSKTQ
Protocol: Enzyme activities are measured using microsomes derived from human adrenal tissues. Microsomes were prepared by homogenization of the tissue followed by differential centrifugation of the homogenate. Microsome extracts were incubated with varying concentrations of dehydroepiandrosterone (DHEA), 1 mM NAD+, and varying amounts of the compounds of Formula (I), i.e. a test compound, in pH 7.5 buffer for a period of time within the range of 1 to 60 minutes. Corresponding incubations were carried out with no test compound as a control study. The percentage of conversion of DHEA to androstenedione in the presence of test compounds compared to the corresponding conversion in the control study was estimated using HPLC with radiochemical detection.

[3] = target: T3, human type 1 5α-reductase (Homo sapiens, UniProt P18405); experiment: Inhibition of human type 1 steroid 5α-reductase (microsomes; testosterone to DHT conversion); type: biochemical; conditions: 10 min preincubation, pH 7.0, 100 nM testosterone, 10-120 min, 1 mM NADPH; read-out: IC50 Human Type 1 5AR
T3 construct: made in house; host or cells: Sf9 insect cells, recombinant baculovirus; microsomes
T3 sequence (P18405 1-259): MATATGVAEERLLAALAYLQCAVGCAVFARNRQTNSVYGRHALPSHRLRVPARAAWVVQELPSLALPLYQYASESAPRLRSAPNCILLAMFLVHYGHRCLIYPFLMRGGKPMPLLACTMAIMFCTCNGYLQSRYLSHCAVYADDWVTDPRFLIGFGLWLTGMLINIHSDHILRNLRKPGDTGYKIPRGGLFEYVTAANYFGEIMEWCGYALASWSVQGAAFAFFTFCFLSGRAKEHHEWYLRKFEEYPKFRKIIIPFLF
Protocol: as §1, §2

[4] = tested on: porcine granulosa cell 3β-hydroxy-Δ^5 -steroid dehydrogenase/3-keto-Δ^5 -steroid isomerase (3BHSD); conditions: cited from earlier work
[5] = tested on: bovine adrenal 3β-hydroxy-Δ^5 -steroid dehydrogenase/3-keto-Δ^5 -steroid isomerase (3BHSD); conditions: cited from earlier work

SMILES	IC50 [1] [nM]	Ki [2] [nM]	IC50 [3] [nM]	inhibition of porcine granulosa cell 3BHSD [4]	inhibition of bovine adrenal 3BHSD [5]
CC(C)(C)c1ccc(C(F)(F)F)cc1NC(=O)[C@H]1CC[C@H]2[C@@H]3CC[C@H]4NC(=O)C=C[C@]4(C)[C@H]3CC[C@]12C [Compound 24, 17β-N-(2-t-Butyl-5-trifluoromethyl)phenylcarbamoyl-4-aza-5α-androst-1-en-3-one]	< 1	> 1000	1 to 10	–	–
CC(C)(C)c1ccc(C2(NC(=O)[C@H]3CC[C@H]4[C@@H]5CC[C@H]6NC(=O)C=C[C@]6(C)[C@H]5CC[C@]34C)C3CCCC2CCC3)cc1 (stereo partly drawn) [Compound 33, 17β-N-9-(4-t-Butylphenyl)bicyclo[3.3.1]nonylcarbamoyl-4-aza-5α-androst-1-en-3-one]	< 1	> 1000	1 to 10	–	–
COc1ccc(C2(NC(=O)[C@H]3CC[C@H]4[C@@H]5CC[C@H]6NC(=O)C=C[C@]6(C)[C@H]5CC[C@]34C)CCCC2)cc1 [Compound 8, 17β-N-1-(4-Methoxyphenyl)cyclopentylcarbamoyl-4-aza-5α-androst-1-en-3-one]	< 1	> 1000	1 to 10	–	–
CCN(CC)C(=O)[C@H]1CC[C@H]2[C@@H]3CC[C@H]4N(C)C(=O)CC[C@]4(C)[C@H]3CC[C@]12C [Compound 4-MA]	–	–	–	potent inhibition	potent inhibition
CN1C(=O)CC[C@]2(C)[C@H]3CC[C@]4(C)[C@@H](C(=O)Nc5cc(C(F)(F)F)ccc5C(C)(C)C)CC[C@H]4[C@@H]3CC[C@@H]12 [Compound 26, 17β-N-(2-t-Butyl-5-trifluoromethyl)phenylcarbamoyl-4-methyl-4-aza-5α-androstan-3-one]	< 1	10 to 10000	< 1	–	–
CN1C(=O)CC[C@]2(C)[C@H]3CC[C@]4(C)[C@@H](C(=O)NC5(c6ccc(Cl)cc6)CCCC5)CC[C@H]4[C@@H]3CC[C@@H]12 [Compound 2, 17β-N-1-(4-Chlorophenyl)cyclopentylcarbamoyl-4-methyl-4-aza-5α-androstan-3-one]	< 1	10 to 10000	< 1	–	–

The next lines start with results.

IC50 [1] [nM]	Ki [2] [nM]	IC50 [3] [nM]	SMILES	inhibition of porcine granulosa cell 3BHSD [4]	inhibition of bovine adrenal 3BHSD [5]
< 1	10 to 10000	< 1	CN1C(=O)CC[C@]2(C)[C@H]3CC[C@]4(C)[C@@H](C(=O)Nc5cc(C(F)(F)F)ccc5C(F)(F)F)CC[C@H]4[C@@H]3CC[C@@H]12 [Compound 23, 17β-N-(2,5-bis(Trifluoromethyl))phenylcarbamoyl-4-methyl-4-aza-5α-androstan-3-one]	–	–
< 1	> 1000	1 to 10	CC(C)(C)c1ccc(C2(NC(=O)[C@H]3CC[C@H]4[C@@H]5CC[C@H]6NC(=O)C=C[C@]6(C)[C@H]5CC[C@]34C)CCCCCC2)cc1 [Compound 13, 17β-N-1-(4-t-Butylphenyl)cycloheptylcarbamoyl-4-aza-5α-androst-1-en-3-one]	–	–
< 1	> 1000	1 to 10	C[C@]12C=CC(=O)N[C@@H]1CC[C@@H]1[C@@H]2CC[C@]2(C)[C@@H](C(=O)NC3(c4ccc(Cl)cc4Cl)CC3)CC[C@@H]12 [Compound 15, 17β-N-1-(2,4-Dichlorophenyl)cyclopropylcarbamoyl-4-aza-5α-androst-1-en-3-one]	–	–
1 to 10	> 1000	1 to 10	C[C@H]1C[C@H]2NC(=O)C=C[C@]2(C)[C@H]2CC[C@]3(C)[C@@H](C(=O)Nc4cc(C(F)(F)F)ccc4C(C)(C)C)CC[C@H]3[C@H]12 [Compound 31, 17β-N-(2-t-Butyl-5-trifluoromethyl)phenylcarbamoyl-4-aza-7β-methyl-5α-androst-1-en-3-one]	–	–
< 1	> 1000	1 to 10	C[C@]12CCC(=O)N[C@@H]1CC[C@@H]1[C@@H]2CC[C@]2(C)[C@@H](C(=O)Nc3cc(C(F)(F)F)ccc3C(F)(F)F)CC[C@@H]12 [Compound 22, 17β-N-(2,5-bis(Trifluoromethyl))phenylcarbamoyl-4-aza-5α-androstan-3-one]	–	–
< 1	> 1000	1 to 10	CC(C)(C)c1ccc(C(F)(F)F)cc1NC(=O)[C@H]1CC[C@H]2[C@@H]3CC[C@H]4NC(=O)CC[C@]4(C)[C@H]3CC[C@]12C [Compound 25, 17β-N-(2-t-Butyl-5-trifluoromethyl)phenylcarbamoyl-4-aza-5α-androstan-3-one]	–	–
< 1	> 1000	< 1	CCC1(CC)CC1(NC(=O)[C@H]1CC[C@H]2[C@@H]3CC[C@H]4NC(=O)C=C[C@]4(C)[C@H]3CC[C@]12C)c1ccc(-c2ccccc2)cc1 (stereo partly drawn) [Compound 21, 17β-N-1-(4-Biphenyl)-2,2-diethylcyclopropylcarbamoyl-4-aza-5α-androst-1-en-3-one]	–	–
< 1	> 1000	1 to 10	C[C@]12C=CC(=O)N[C@@H]1CC[C@@H]1[C@@H]2CC[C@]2(C)[C@@H](C(=O)NC3(c4ccc(C(F)(F)F)cc4)CCCC3)CC[C@@H]12 [Compound 7, 17β-N-1-(4-Trifluoromethylphenyl)cyclopentylcarbamoyl-4-aza-5α-androst-1-en-3-one]	–	–
